# Experimental data as given in US20240247029A1, “INTERLEUKIN-1 RECEPTOR MODULATORS AND USES THEREOF” (VALORISATION HSJ, LIMITED PARTNERSHIP, priority 2020, published 2024).
# Columns and labels:
# [1] = Quiniou et al. 2008; cited from earlier work
# Sprague Dawley rat pups = assay: Oxygen-induced retinopathy (OIR) model; format: in vivo; settings: 2 mg/kg/day intraperitoneal twice daily, 80% oxygen P5 to P10
# Description: Experiments in the oxygen-induced retinopathy rodent model were preformed according to the method described previously (Geranurimi et al. 2019), and summarized below.
# Animals. Two-day-old (P2) Sprague Dawley rat pups and their mothers were ordered from Charles River (Raleigh, SC, USA) and acclimatized for 3 days in standard conditions. All procedures and protocols involving the use of the rats were approved by the Animal Care Committee of the research center of Hopital Maisonneuve-Rosemont and are in accordance with the Statement for the Use of Animals in Ophthalmic and Vision Research approved by the Association for Research in Vision and Ophthalmology, and guidelines established by the Canadian Council on Animal Care.
# Oxygen-Induced Retinopathy in Sprague Dawley Rats. The 80% oxygen model of retinopathy was conducted as previously described (Geranurimi et al. 2019). Briefly, litters of P5 pups and their mothers were kept in a controlled 80% oxygen environment until P10. The pups were respectively injected intraperitoneally twice daily with PBS vehicle (20 μL per injection), peptide 1 or derivatives 2 (titrated to a daily dose of 2 mg/kg/day). Control litters were kept under normal air atmosphere and standard conditions. On P10, pups were euthanized by decapitation under 2% isoflurane anesthesia. Eyes were enucleated and fixed in 4% paraformaldehyde, then stored at 4° C. in phosphate-buffered saline (PBS) until further processing.
# Retinal Flatmount and Immunohistochemistry. The fixed eyes were dissected, and the obtained retinas were incubated with antibodies and mounted onto slides as previously described in (Geranurimi et al. 2019). Briefly, the cornea and lens were removed from the eyes, and the retina gently removed from the underlying sclera-choroid-retinal pigmented epithelium (RPE) complex. Retinas were treated for 1h with blocking solution [1% bovine serum albumin (BSA), 1% normal goat serum, 0.1% Triton X-100 and 0.05% Tween-20 in PBS], and then incubated overnight with lectin and Iba-1 primary antibody, followed by Alexa-594-conjugated secondary antibody for 2 h. Retinas were then mounted onto microscope slides under coverslips with anti-fade mounting medium.
# Microscopy. Retinal flatmounts were imaged using the Zeiss Axiolmager Z2 and the MosaiX feature of the AxioVision software as previously described (Geranurimi et al. 2019). Representative images after Iba-1 staining were taken using a laser scanning confocal microscope (Olympus IX81 with Fluoview FV1000 Scanhead) using the Fluoview Software at 30× magnification.
# Quantification and Data Analysis. The FIJI software was used to quantify the area of vaso-obliteration in each retina, expressed as a percentage of the area of the whole retina. The number of Iba-1-positive cells was counted using the cell counter plug-in in the FIJI software, and the average of cell counts in 4 fields per retina was calculated. Data was analyzed using Prism 7 with one-way ANOVA and the Dunnett's test for multiple comparisons. Results were treated as significant when p was less than 0.05 and expressed as mean+SEM.
# timed-pregnant CD-1 mice = assay: LPS-induced preterm birth model in mice; format: in vivo, mouse; settings: 2 mg/kg/day subcutaneous, LPS 10 μg intraperitoneal on G16.5; delivery before G18.5; LPS alone ˜80%
# Protocol: FIG. 6 is a graph showing the effects of peptides 1 and 2 on prevention of PTB. In brief, pregnant dams on day 16.5 of gestation (G16.5) were subcutaneously pretreated with peptides 1 and 2 (2 mg/kg/day subcutaneous injections) or vehicle, followed by LPS (10 μg intraperitoneal injection), and observed for delivery of pups. A dam was considered as delivering preterm if at least one pup was delivered before G18.5. n=4-5 dams per treatment group.
# Timed-pregnant CD-1 mice at 16.5 days of gestation (G16.5) were anesthetized with 2% isoflurane and received an intraperitoneal injection of lipopolysaccharide (LPS, n=4 per group, a single dose of 10 ug) (Nadeau-Vallée et al., 2015; Kakinuma et al., 1997). A dosage of 2 mg/kg/day of peptides 1 and 2 or vehicle was respectively injected subcutaneously in the neck, every 12h until delivery. On G16.5, a dose of 1 mg/kg was injected 30 min before stimulation with LPS (to allow distribution of drugs to target tissues) and 1 mg/kg was injected 12h after stimulation (n=4 each treatment). Mice delivery was assessed every hour until term (G19-G19.5). A mouse was considered as delivering prematurely if the first pup was delivered earlier than G18.5. Data was analyzed using Prism 7 (GraphPad Software, San Diego, CA, USA) with one-way ANOVA and Dunnett's test for multiple comparisons. Outliers were detected using Grubb's test. Results were treated as significant when p was <0.05 and expressed as mean+SEM.
# From the results of the in vitro screens, a subset of six (3R,4S)-β-substituted-Agl^3 peptides (e.g., 2c, 2d, 2f, 2l, 2n, 2q) were selected for examination in vivo in a CD-1 mouse model of preterm birth (PTB), and a Sprague Dawley rat model of oxygen-induced retinopathy (OIR). In the PTB model, timed-pregnant CD-1 dams were pre-treated with peptides 1 or 2, or PBS vehicle, and then injected with LPS on day 16.5 of gestation (G16.5). A bacterial cell wall component that contains PAMPs, LPS is known to reliably induce labor via pro-inflammatory pathways implicating IL-1 (Hirsch and Wang 2005). The CD-1 mice have a gestation of 19.2 days (Goupil et al. 2010). Dams that delivered at least one pup before G18.5 were considered to have given birth prematurely. In the absence of peptide, LPS alone induced premature labor in ˜80% of treated mice (FIG. 6). Peptide 1 and triazoles 2 l and 2q, all reduced the PTB rate to ˜20%.
# human thymocyte = settings: in vitro (Jamieson et al. 2009); cited from earlier work
# [2] = system: IL-1β-induced NF-κB signaling in HEK-Blue IL-33/IL-1β cells; assay: NF-κB QUANTI-Blue assay; format: cell-based; settings: peptide 10^−6 M, 30 min pretreatment, IL-1β 100 ng/ml
# Protocol: FIG. 3 is a graph showing the effects of peptides 1 and 2 on IL-1β-induced NF-κB signaling in HEK-Blue cells as quantified in the QUANTI-blue assay. After pre-incubation with peptide or vehicle, HEK-Blue cells were stimulated with IL-1β for 24 h, and secreted alkaline phosphatase activity was spectroscopically detected as a reporter product from the transcription of the NF-κB gene. Data shown represents the average of 2 experiments (each with n=4 per treatment group): ****p<0.0001 compared to group treated only with IL-1β.
# HEK-Blue IL-33/IL-1β cells (InvivoGen) were respectively pretreated with peptides 1 and 2 (10^−6 M), or Kineret (1.0 mg/mL) for 30 min, followed by treatment with a constant concentration of […] (100 ng/ml), and incubation at 37° C. for 4 h. Levels of secreted alkaline phosphatase in cell culture supernatant were determined using the QUANTI-Blue assay, according to the manufacturer's instructions (InvivoGen). Alkaline phosphatase activity was assessed by measuring the optical density (OD) at 620-655 nm with an EnVision Multilabel micro plate reader (PerkinElmer, Waltham, MA). Data are representative of 3 experiments (each with n=4 per treatment group).
substance,measurement,setting,value
"H-D-Arg-D-Tyr-D-Thr-D-Val-D-Glu-D-Leu-D-Ala-NH2 [compound 1, reference compound]",in vivo effects in models of hyperthermia and inflammatory bowel disease,[1],robust in vivo effects
same,retinal microglial morphology/activation (Iba-1 staining),Sprague Dawley rat pups,ramified and branched microglia
same,extent of vaso-obliteration (percentage of total retinal area),Sprague Dawley rat pups; vehicle ˜30%,~20%
same,PTB rate,timed-pregnant CD-1 mice,~20%
same,IL-1β-induced human thymocyte cell proliferation,human thymocyte,blocked
same,effect on IL-1β-induced NF-κB signaling (secreted alkaline phosphatase),[2],no effect
